Measured values taken from US7795255B2, “Rigidified compounds for modulating heparanase activity” (InSight Biopharmaceuticals Ltd., priority 2005, dated 2010).

Tests used:
[1] = molecular target: T1, recombinant human pro-heparanase (H60) (Homo sapiens, UniProt Q9Y251); test: Pro-heparanase (H60) activation in a cell-based assay; settings: inhibition of pro-heparanase activation in CHO cells; NI = no inhibition
T1 construct: Heparanase maturation involves the removal of the signal peptide, transforming the 65 kDa pre-pro-heparanase into a 60 kDa pro-heparanase; made in house
T1 sequence (Q9Y251 36-543): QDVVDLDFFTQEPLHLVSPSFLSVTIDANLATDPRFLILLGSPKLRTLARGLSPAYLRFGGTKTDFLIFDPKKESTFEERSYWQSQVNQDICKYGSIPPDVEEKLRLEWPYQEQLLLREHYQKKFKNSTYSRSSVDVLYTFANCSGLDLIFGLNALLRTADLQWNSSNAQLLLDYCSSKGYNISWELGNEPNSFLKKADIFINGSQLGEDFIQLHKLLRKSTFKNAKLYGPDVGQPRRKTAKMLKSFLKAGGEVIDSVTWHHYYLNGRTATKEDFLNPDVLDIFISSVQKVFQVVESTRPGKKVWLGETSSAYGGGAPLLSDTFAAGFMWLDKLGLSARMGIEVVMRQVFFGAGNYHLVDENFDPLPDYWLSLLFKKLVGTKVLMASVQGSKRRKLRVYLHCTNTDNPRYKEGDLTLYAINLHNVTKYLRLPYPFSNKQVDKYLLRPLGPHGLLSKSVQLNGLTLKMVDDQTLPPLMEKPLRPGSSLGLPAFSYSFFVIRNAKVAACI
Protocol: Pro-heparanase (H60) activation in a cell-based assay: Chinese hamster ovary (CHO) cells were grown in complete F12 medium supplemented with 10% fetal calf serum (FCS). […] The plates were incubated for 24 hours in a 37° C. humidified incubator with 5% CO2. […] The plates were further incubated for additional 4 hours. The pro-heparanase was allowed to internalize by the cells and further processed to generate the active 53 kDa heparanase. At the end of the incubation, the cells were lysed by three consecutive cycles of freezing and thawing in a −80° C. freezer and a 37° C. shaker.
The rigidified compounds described herein were tested for inhibition of pro-heparanase activation in the cell-based assay described above.

[2] = molecular target: T2, vascular endothelial growth factor (VEGF) (Homo sapiens, UniProt P15692); test: ELISA for determination of binding of VEGF to heparin; settings: for IC50: inhibition of VEGF binding to heparin, NI = no inhibition; for inhibition of VEGF binding to heparin: inhibition towards both growth factors
T2 sequence (P15692 27-191 isoform P15692-4): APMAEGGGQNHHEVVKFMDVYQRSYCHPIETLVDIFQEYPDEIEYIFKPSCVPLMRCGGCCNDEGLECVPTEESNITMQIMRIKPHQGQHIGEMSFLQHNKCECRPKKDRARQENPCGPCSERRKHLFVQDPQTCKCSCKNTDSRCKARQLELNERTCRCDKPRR
Protocol: Enzyme-linked immunosorbent assay (ELISA) for determination of binding of vascular endothelial growth factor (VEGF) to heparin: 96-well microplates were coated for 2 hours. at 23-25° C. with 5 μg/ml heparin-albumin (Rimon Biotech) and blocked with 1% bovine serum albumin (BSA) in phosphate buffer (PBS) with 0.05% Tween and 0.01% thimerosal for 2 hours. VEGF was added to the plates at a concentration of 10 ng/ml and the plates were thereafter incubated for 45 minutes at 23-25° C. The amount of VEGF bound to heparin was detected using anti-VEGF monoclonal antibody (Sigma Cat. No. V4758) at a concentration of 0.26 μg/ml and secondary antibodies Sheep anti-mouse IgG linked to horseradish peroxidase (1:2000) using 3,3′,5,5′-tetramethylbenzidine (TMB, Pierce Cat. No. 34021) as a substrate for peroxidase. The plates were read at 450 nm with a reference wavelength of 630 nm using a VERSAmax plate reader. […] Percent inhibition was calculated as compared with a control pre-incubated with a solution of 1% DMSO and the results are presented in Table 3 below.

[3] = molecular target: β-FGF (Homo sapiens, UniProt P09038); test: ELISA for determination of binding of β-FGF to heparin; settings: for IC50: inhibition of β-FGF binding to heparin, NI = no inhibition; for inhibition of β-FGF binding to heparin: inhibition towards both growth factors
Protocol: ELISA for determination of binding of β-FGF to heparin: 96-well microplates were coated for 2 hours at 23-25° C. with 5 μg/ml heparin-albumin (Rimon Biotech) and blocked with 1% BSA in PBS, with 0.05% Tween, and 0.01% thimerosal for 2 hours. β-FGF was added to the plates at a concentration of 10 ng/ml and plates were incubated for 45 minutes at 23-25° C. The amount of β-FGF bound to heparin was detected using anti-FGF monoclonal antibody (Sigma Cat. No. F6162) at a concentration of 2.5 ng/ml and secondary antibodies Sheep anti-mouse IgG linked to horseradish peroxidase (1:3000) TMB (Pierce Cat. No. 34021) was used as a substrate for peroxidase. The plates were read at 450 nm with a reference wavelength of 630 nm using a VERSAmax plate reader.

Sequence of β-FGF (P09038 143-288): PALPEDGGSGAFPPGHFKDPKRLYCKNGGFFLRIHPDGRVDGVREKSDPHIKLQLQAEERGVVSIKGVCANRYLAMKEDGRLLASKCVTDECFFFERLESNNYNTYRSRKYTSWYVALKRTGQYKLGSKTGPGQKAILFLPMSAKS

Row | IC50 [1] [nM] | IC50 [2] [nM] | IC50 [3] [nM] | inhibition of β-FGF binding to heparin [3] | inhibition of VEGF binding to heparin [2] | Molecule
1 |  | 260 | 160 | sub-micromolar | sub-micromolar | CC(C)(CC(=O)On1nnc2ccccc2c1=O)CN1C(=O)c2cc3oc(-c4ccc(Cl)cc4)cc3n2C1=S [Compound 12, 4-[2-(4-Chloro-phenyl)-6-oxo-4-thioxo-6H-1-oxa-3b,5-diaza-cyclopenta[a]pentalen-5-yl]-3,3-dimethyl-butyric acid 4-oxo-4H-benzo[d][1,2,3]triazin-3-yl ester]
2 | 16000 |  |  |  |  | CCOC(=O)CCCN1C(=O)c2cc3oc(Oc4ccc([N+](=O)[O-])cc4)cc3n2C1=S [Compound 33, ethyl 4-[2-(4-nitro-phenoxy)-6-oxo-4-thioxo-6H-1-oxa-3b,5-diaza-cyclopenta[a]pentalen-5-yl]-butyric acid ethyl ester]
3 |  | 22500 | 11500 |  |  | CCOC(=O)CCCN1C(=O)c2cc3oc4ccc([N+](=O)[O-])cc4c3n2C1=S [Compound 38, ethyl 4-[2,3-(3-nitro-phenyl)-6-oxo-4-thioxo-6H-1-oxa-3b,5-diaza-cyclopenta[a]pentalen-5-yl]-butyric acid ethyl ester]
4 | 25000 |  |  |  |  | CCOC(=O)CCCn1c(=S)sc2c(N)snc21 [Compound 43, ethyl 4-(3-amino-5-thioxo-thiazolo[4,5-c]isothiazol-6-yl)-butyric acid ethyl ester]
5 | 7000 |  |  |  |  | CCOC(=O)CCCn1c(=S)sc2c(I)snc21 [Compound 44, ethyl 4-(3-iodo-5-thioxo-thiazolo[4,5-c]isothiazol-6-yl)-butyric acid ethyl ester]
6 |  | 15000 |  |  |  | CCOC(=O)CCCn1c(=S)sc2c(-c3ccc(-c4ccc([N+](=O)[O-])cc4)o3)snc21 [Compound 45, 4-{3-[5-(4-nitro-phenyl)-furan-2-yl]-5-thioxo-thiazolo[4,5-c]isothiazol-6-yl}-butyric acid ethyl ester]

The next lines start with the molecule.

Row | Molecule | IC50 [1] [nM] | IC50 [2] [nM] | IC50 [3] [nM] | inhibition of β-FGF binding to heparin [3] | inhibition of VEGF binding to heparin [2]
7 | 4-[2-(4-Nitro-phenyl)-4,6-dioxo-6H-1-oxa-3b,5-diaza-cyclopenta[a]pentalen-5-yl]-butyric acid ethyl ester [Compound 30] | 3900 | 100 |  |  | 
8 | CCOC(=O)CCCN1C(=O)c2cc3oc(-c4ccc([N+](=O)[O-])cc4)cc3n2C1=S [Compound 1, ethyl 4-[2-(4-nitro-phenyl)-6-oxo-4-thioxo-6H-1-oxa-3b,5-diaza-cyclopenta[a]pentalen-5-yl]-butyric acid ethyl ester] |  | 130 | 140 |  | 
9 | CON(C)C(=O)CCCN1C(=O)c2cc3oc(-c4ccc([N+](=O)[O-])cc4)cc3n2C1=S [Compound 3, N-methoxy-N-methyl-4-[2-(4-nitro-phenyl)-6-oxo-4-thioxo-6H-1-oxa-3b,5-diaza-cyclopenta[a]pentalen-5-yl]-butyramide] |  | 250 | 90 | sub-micromolar | sub-micromolar
10 | CC(C)(CC(=O)O)CN1C(=O)c2cc3oc(-c4ccc([N+](=O)[O-])cc4)cc3n2C1=S [Compound 8, 3,3-Dimethyl-4-[2-(4-nitro-phenyl)-6-oxo-4-thioxo-6H-1-oxa-3b,5-diaza-cyclopenta[a]pentalen-5-yl]-butyric acid] | 780 |  |  |  | 
11 | CC(C)(CC(=O)NO)CN1C(=O)c2cc3oc(-c4ccc([N+](=O)[O-])cc4)cc3n2C1=S [Compound 9, N-hydroxy-3,3-dimethyl-4-[2-(4-nitro-phenyl)-6-oxo-4-thioxo-6H-1-oxa-3b,5-diaza-cyclopenta[a]pentalen-5-yl]-butyramide] | 170 |  |  |  | 
12 | CCOP(=O)(CCCN1C(=O)c2cc3oc(-c4ccc(Cl)cc4)cc3n2C1=S)OCC [Compound 27, {3-[2-(4-chloro-phenyl)-6-oxo-4-thioxo-6H-1-oxa-3b,5-diaza-cyclopenta[a]pentalen-5-yl]-propyl}-phosphonic acid diethyl ester] | 260 | 300 |  |  | 
